The subject of one test is mucosal memory responses. In words: Effect of ATRA on immune responses in skin-draining lymph nodes in vivo.
The next test has as its system Salmonella. Particulars: ATRA during parenteral immunization, reference 12; cited from earlier work.

With `CC1=C(/C=C/C(C)=C/C=C/C(C)=C/C(=O)O)C(C)(C)CCC1` [ATRA, all-trans retinoic acid], in the test with mucosal memory responses, the “mucosal memory responses at mucosal surfaces” value was “not only enhanced in the small intestine, but also at other mucosal surfaces”. In addition, the “protection against Salmonella infections” value in the test with Salmonella is “convey protection against Salmonella infections”.

The record behind these values is patent publication US20210338709A1, “USES OF MODIFIED RNA ENCODING RETINALDEHYDE DEHYDROGENASE” (priority 2018, published 2021).
